Experimental data taken from patent US20090227533A1, “miR-34 Regulated Genes and Pathways as Targets for Therapeutic Intervention” (priority 2007, published 2009).

Key:
[1] = test system: normal human T cells; details: cited from earlier work
[2] = test system: prostate cancer cells PPC-1, Du145, LNCaP and RWPE2; assay: Alamar Blue proliferation assay, average over four prostate cancer cell lines; format: cell-based, human
Excerpt: The inventors assessed the therapeutic effect of hsa-miR-34a for prostate cancer by using four individual human prostate cancer cell lines. To measure cellular proliferation of prostate cancer cells, the following prostate cancer cell lines were used: PPC-1, derived from a bone metastasis; Du145, derived from a brain metastasis; RWPE2, derived from prostate cells immortalized by human papillomavirus 18 and transformed by the K-RAS oncogene; and LNCaP, derived from a lymph node metastasis (Bello et al., 1997; Pretlow et al., 1993; Stone et al., 1978; Brothman et al., 1991; Horoszewicz et al., 1980). PPC-1 and Du145 cells lack expression of the prostate-specific antigen (PSA) and are independent of androgen receptor (AR) signaling. In contrast, RWPE2 and LNCaP cells test positive for PSA and AR. Cells were transfected with synthetic hsa-miR-34a (Pre-miR™-hsa-miR-34a, Ambion cat. no. AM17100) or negative control miRNA (NC; Pre-miR™ microRNA Precursor Molecule-Negative Control #2; Ambion cat. no. AM17111) in a 96-well format using a lipid-based transfection reagent. […] Proliferation was assessed 4-7 days post-transfection using Alamar Blue™ (Invitrogen) following the manufacturer's instructions. […] Fluorescent light units (FLU) were measured after 3 hours, normalized to the control, and plotted as percent change in proliferation. […]

[3] = test system: prostate cancer cells (22Rv1); details: cited from earlier work
[4] = test system: lung cancer cells A549, H522, H596, Calu-3, HCC2935, H1650, H460, and H226; assay: Alamar Blue proliferation assay, average over eight lung cancer cell lines; format: cell-based, human
Excerpt: (§1) The inventors assessed the therapeutic effect of hsa-miR-34a for lung cancer by using eight individual lung cancer cell lines. To measure cellular proliferation of lung cancer cells, the following non-small cell lung cancer (NSCLC) cells were used: cells derived from lung adenocarcinoma (A549, H522, Calu-3, HCC2935), cells derived from lung squamous cell carcinoma (H226), cell derived from lung adenosquamous cell carcinoma (H596), cells derived from lung bronchioalveolar carcinoma (H1650), and cells derived from lung large cell carcinoma (H460). Synthetic hsa-miR-34a (Pre-miR™-hsa-miR-34a, Ambion cat. no. AM17100) or negative control (NC) miRNA (Pre-miR™ microRNA Precursor Molecule-Negative Control #2; Ambion cat. no. AM17111) was delivered via lipid-based transfection into A549, H522, H596, Calu-3, HCC2935, H1650, H460 cells and via electroporation into H226 cells.
Lipid-based reverse transfections were carried out in triplicate according to a published protocol (Ovcharenko et al., 2005) and the following parameters: cells (5,000-12,000 per 96 well), 0.1-0.2 μl Lipofectamine™ 2000 (cat. no. 11668-019, Invitrogen Corp., Carlsbad, Calif., USA) in 20 μl OptiMEM (Invitrogen), 30 nM final concentration of miRNA in 100 μl. […]

[5] = test system: RWPE2 cells; assay: Alamar Blue proliferation assay, prostate cancer cells; format: cell-based, human; details: 30 nM, normalized to negative control miRNA (100% proliferation)
Excerpt: (§2) The inventors assessed the therapeutic effect of hsa-miR-34a for prostate cancer by using four individual human prostate cancer cell lines. To measure cellular proliferation of prostate cancer cells, the following prostate cancer cell lines were used: PPC-1, derived from a bone metastasis; Du145, derived from a brain metastasis; RWPE2, derived from prostate cells immortalized by human papillomavirus 18 and transformed by the K-RAS oncogene; and LNCaP, derived from a lymph node metastasis (Bello et al., 1997; Pretlow et al., 1993; Stone et al., 1978; Brothman et al., 1991; Horoszewicz et al., 1980). PPC-1 and Du145 cells lack expression of the prostate-specific antigen (PSA) and are independent of androgen receptor (AR) signaling. In contrast, RWPE2 and LNCaP cells test positive for PSA and AR. Cells were transfected with synthetic hsa-miR-34a (Pre-miR™-hsa-miR-34a, Ambion cat. no. AM17100) or negative control miRNA (NC; Pre-miR™ microRNA Precursor Molecule-Negative Control #2; Ambion cat. no. AM17111) in a 96-well format using a lipid-based transfection reagent. Lipid-based reverse transfections were carried out in triplicate according to a published protocol (Ovcharenko et al., 2005) and the following parameters: cells (6,000-7,000 per 96 well), 0.1-0.2 μl Lipofectamine™ 2000 (cat. no. 11668-019, Invitrogen Corp., Carlsbad, Calif., USA) in 20 μl OptiMEM (Invitrogen), 30 nM final concentration of miRNA in 100 μl. Proliferation was assessed 4-7 days post-transfection using Alamar Blue™ (Invitrogen) following the manufacturer's instructions. As a control for inhibition of cellular proliferation, siRNA against the motor protein kinesin 11, also known as Eg5, was used. Eg5 is essential for cellular survival of most eukaryotic cells and a lack thereof leads to reduced cell proliferation and cell death (Weil et al., 2002). siEg5 was used in lipid-based transfection following the same experimental parameters that apply to miRNA. Fluorescent light units (FLU) were measured after 3 hours, normalized to the control, and plotted as percent change in proliferation. Percent proliferation of hsa-miR-34a treated cells relative to cells treated with negative control miRNA (100%) is shown in Table 9 and in FIG. 5.

[6] = test system: PPC-1 cells; assay: as above; format: cell-based, human; details: 30 nM, normalized to negative control miRNA (100% proliferation)
Excerpt: as §2

[7] = test system: LNCaP cells; assay: as above; format: cell-based, human; details: 30 nM, normalized to negative control miRNA (100% proliferation)
Excerpt: as §2

[8] = test system: Du145 cells; assay: as above; format: cell-based, human; details: 30 nM, normalized to negative control miRNA (100% proliferation)
Excerpt: as §2

[9] = test system: H596 cells; assay: Alamar Blue proliferation assay, lung cancer cells; format: cell-based, human; details: hsa-miR-34a 30 nM, lipid transfection, 72 hours, normalized to NC (100%)
Excerpt: as §1
Lipid-based reverse transfections were carried out in triplicate according to a published protocol (Ovcharenko et al., 2005) and the following parameters: cells (5,000-12,000 per 96 well), 0.1-0.2 μl Lipofectamine™ 2000 (cat. no. 11668-019, Invitrogen Corp., Carlsbad, Calif., USA) in 20 μl OptiMEM (Invitrogen), 30 nM final concentration of miRNA in 100 μl. Electroporation of H226 cells was carried out using the BioRad Gene Pulser Xcell™ instrument (BioRad Laboratories Inc., Hercules, Calif., USA) with the following settings: 5×10^6 cells with 5 μg miRNA in 200 μl OptiMEM (1.6 μM miRNA), square wave pulse at 250 V for 5 ms. Electroporated H226 cells were seeded at 7,000 cells per 96-well in a total volume of 100 μl. All cells except for Calu-3 cells were harvested 72 hours post transfection or electroporation for assessment of cellular proliferation. Calu-3 cells were harvested 10 days post transfection. Proliferation assays were performed using Alamar Blue (Invitrogen) following the manufacturer's instructions. As a control for inhibition of cellular proliferation, siRNA against the motor protein kinesin 11, also known as Eg5, was used. Eg5 is essential for cellular survival of most eukaryotic cells and a lack thereof leads to reduced cell proliferation and cell death (Weil et al., 2002). siEg5 was used in lipid-based transfection following the same experimental parameters that apply to miRNA. The inventors also used a DNA topoisomerase II inhibitor, etoposide, at a final concentration of 10 μM and 50 μM as an internal standard for the potency of miRNAs. Etoposide is an FDA-approved DNA topoisomerase II inhibitor in the treatment of lung cancer. […] Percent (%) proliferation values from the Alamar Blue assay were normalized to values from cells treated with negative control miRNA. Percent proliferation of hsa-miR-34a treated cells relative to cells treated with negative control miRNA (100%) is shown in Table 7 and in FIG. 1.

[10] = test system: PPC-1 tumors; assay: Histology and immunohistochemistry (Ki-67, caspase 3) of xenograft tumors; format: in vivo, NOD/SCID mice
Description: To gain further insight into the biological status of these cells, immunohistochemistry analyses specific for the proliferation marker Ki-67, as well as caspase 3, an indicator of apoptosis were performed.

[11] = areas with viable cells in treated PPC-1 tumors

Substance: hsa-miR-34a: synthetic miRNA; mature sequence UGGCAGUGUCUUAGCUGGUUGUU (MIMAT0000255; SEQ ID NO:1) (synthetic miRNA, chemistry not given here)
- proliferation [1]: no anti-proliferative effect
- average inhibition of cellular proliferation ([2]; average over four prostate cancer cell lines, 30 nM, relative to negative control miRNA): 37.18%
- growth-inhibitory activity compared with siEg5 ([2]; prostate cancer cell lines): comparable to that of Eg5-directed siRNA
- proliferation [3]: inhibits the proliferation
- average inhibition of cellular proliferation ([4]; average over eight lung cancer cell lines, relative to negative control miRNA): 25.30%
- growth-inhibitory activity compared with etoposide ([4]; lung cancer cell lines): comparable to that of etoposide at concentrations ≧10 μM
- % proliferation [5]: 95.96%
- % proliferation [6]: 24.65%
- % proliferation [7]: 49.40%
- % proliferation [8]: 81.26%
- % proliferation [9]: 73.19%
- tumor histology (hematoxylin and eosin) ([10]; PPC-1 tumors): consisted mostly of matrigel with cellular debris and sparsely distributed cells
- Ki-67 (proliferation marker) immunohistochemistry [10, 11]: reduced levels
- caspase 3 (apoptosis indicator) immunohistochemistry [10, 11]: increased levels
